# Test results taken from publication PMC11800497, “Antifungal activity and biocompatibility assessment with molecular docking and dynamic simulations of new pyrazole derivatives” (BMC Biotechnology, 2025).
# Where two headings read alike, the source gives them in different places. Marks after values point to notes of the source that are not given here.
# Key:
# Assay in all cases: Well-diffusion antifungal activity
# A. flavus ATCC 9643 = assay type: cell-based, Aspergillus flavus; details: for zone of inhibition at 1000 µg/mL: Aspergillus flavus, read-out: IZD
# Method: (§1) This study investigated strains of four distinct fungal pathogens: Aspergillus flavus ATCC 9643, A. niger ATCC 11414, Rhizopus oryzae ATCC 96382, and Penicillium chrysogenum ATCC 10106. Every strain was acquired from the Dep. of Micro. Fac. Agric., […] Uni., in Egypt. Initially kept and preserved in malt agar medium at 4 °C, the pathogens were then grown overnight at 28 °C in malt broth medium to evaluate the antifungal activity. Fungal pathogen standard inoculum was prepared by following the procedure described by. To assess the antifungal activity, the pathogens were first maintained and stored at 4 °C in malt agar medium. They were then cultured in malt broth medium for a whole night at 28 °C. According to [22], the well-diffusion technique was used to test the antifungal activity. This included using a 9.0 mm cork borer that had been sterilized to create wells in the malt agar layer. […] After adding 1000 μg/ml of control pyrazole compounds and the standard antifungal (Fluconazole 1000 μg/ml) to each well, the petri dishes were incubated at 28 °C for 72 h. The diameter of the standard reference antifungal was compared to the millimeters measurements of the inhibitory zones. The formula according to [22] was utilized to compute the activity index (AI).1 [drawing 1]
# [1] = system: P. chrysogenum ATCC 10106; assay type: cell-based, Penicillium chrysogenum; details: for zone of inhibition at 1000 µg/mL: Penicillium chrysogenum, read-out: IZD; for AI (activity index): relative to Fluconazole 1000 µg/ml
# Method: as §1
# R. oryzae ATCC 96382 = assay type: cell-based, Rhizopus oryzae; details: Rhizopus arrhizus, read-out: IZD
# Method: as §1
# A. niger ATCC 11414 = assay type: cell-based, Aspergillus niger; details: for zone of inhibition at 1000 µg/mL: Aspergillus niger, read-out: IZD; for AI (activity index): relative to Fluconazole 1000 µg/ml
# Method: This study investigated strains of four distinct fungal pathogens: Aspergillus flavus ATCC 9643, A. niger ATCC 11414, Rhizopus oryzae ATCC 96382, and Penicillium chrysogenum ATCC 10106. Every strain was acquired from the Dep. of Micro. Fac. Agric., […] Uni., in Egypt. Initially kept and preserved in malt agar medium at 4 °C, the pathogens were then grown overnight at 28 °C in malt broth medium to evaluate the antifungal activity. Fungal pathogen standard inoculum was prepared by following the procedure described by [19, 20]. To assess the antifungal activity, the pathogens were first maintained and stored at 4 °C in malt agar medium. They were then cultured in malt broth medium for a whole night at 28 °C. According to [22], the well-diffusion technique was used to test the antifungal activity. This included using a 9.0 mm cork borer that had been sterilized to create wells in the malt agar layer. […] After adding 1000 μg/ml of control pyrazole compounds and the standard antifungal (Fluconazole 1000 μg/ml) to each well, the petri dishes were incubated at 28 °C for 72 h. The diameter of the standard reference antifungal was compared to the millimeters measurements of the inhibitory zones. The formula according to [22] was utilized to compute the activity index (AI).1 [drawing 1]
# [2] = ATCC9643, 1000 µg/ml, 72 h, 28 °C
# [3] = ATCC10106, 1000 µg/ml, 72 h, 28 °C
# [4] = ATCC96382, 1000 µg/ml, 72 h, 28 °C
# [5] = ATCC11414, 1000 µg/ml, 72 h, 28 °C
SMILES,zone of inhibition at 1000 µg/mL (A. flavus ATCC 9643; [2]),"zone of inhibition at 1000 µg/mL [1, 3]",zone of inhibition at 1000 µg/mL (R. oryzae ATCC 96382; [4]),zone of inhibition at 1000 µg/mL (A. niger ATCC 11414; [5]),AI (activity index) ([1]; 1000 µg/ml),"IZD ([1]; 1000 µg/ml, 72 h, 28 °C)","IZD (A. niger ATCC 11414; 1000 µg/ml, 72 h, 28 °C)",AI (activity index) (A. niger ATCC 11414; 1000 µg/ml),"IZD (A. flavus ATCC 9643; 1000 µg/ml, 72 h, 28 °C)","zone of inhibition at 1000 µg/mL (A. flavus ATCC 9643; ATCC9643, 72 h)","zone of inhibition at 1000 µg/mL ([1]; ATCC10106, 72 h)","zone of inhibition at 1000 µg/mL (R. oryzae ATCC 96382; ATCC96382, 72 h)","zone of inhibition at 1000 µg/mL (A. niger ATCC 11414; ATCC11414, 72 h)"
"O=C1OC(=O)c2c(Br)c(Br)c(Br)c(Br)c21 [compound 5, 4,5,6,7 tetrabromoisobenzofuran-1,3-dione]",0 mm,0 mm,0 mm,0 mm,–,–,–,–,–,–,–,–,–
N#C/C(=C\c1cn(-c2ccccc2)nc1-c1ccccc1)C(=O)Nc1ccc(Cl)cc1 [3d],0 mm,0 mm,0 mm,0 mm,–,–,–,–,–,–,–,–,–
N#C/C(=C\c1cn(-c2ccccc2)nc1-c1ccccc1)C(=O)Nc1ccc([N+](=O)[O-])cc1 [3f],0 mm,0 mm,0 mm,0 mm,–,–,–,–,–,–,–,–,–
N#Cc1c(-c2cn(-c3ccccc3)nc2-c2ccccc2)[nH][nH]c1=O [compound 7],0 mm,13 ± 0.11 mm,0 mm,0 mm,0.56,–,–,–,–,–,–,–,–
CN(C)/C=C(\C#N)C(=O)N/N=C/c1cn(-c2ccccc2)nc1-c1ccccc1 [compound 11],0 mm,0 mm,0 mm,0 mm,–,–,–,–,–,–,–,–,–
Cc1ccc(N=Nc2ccc3oc(=O)c(C(=O)NN=Cc4cn(-c5ccccc5)nc4-c4ccccc4)cc3c2)cc1 [10b],0 mm,20 mm,0 mm,28 mm,0.87,20 ± 0.13^e mm,28 ± 0.12^c mm,0.87,–,–,–,–,–
CN(C)C=C1C(=O)NN=C(c2cn(-c3ccccc3)nc2-c2ccccc2)C1=O [compound 12],23 mm,0 mm,0 mm,25 mm,–,–,25 ± 0.08^f mm,0.78,23 ± 0.02^d mm,–,–,–,–
Cc1ccc(NC(=O)/C(C#N)=C/c2cn(-c3ccccc3)nc2-c2ccccc2)cc1 [3a],0 mm,0 mm,0 mm,0 mm,–,–,–,–,–,–,–,–,–
N#C/C(=C\c1cn(-c2ccccc2)nc1-c1ccccc1)C(=O)Nc1ccc(C(=O)O)cc1 [3e],0 mm,0 mm,0 mm,0 mm,–,–,–,–,–,–,–,–,–
"O=Cc1cn(-c2ccccc2)nc1-c1ccccc1 [compound 1, 1,3-diphenyl-1H-pyrazole-4-carbaldehyde]",–,–,–,–,–,–,–,–,–,0 mm,0 mm,0 mm,0 mm
N#C/C(=C\c1cn(-c2ccccc2)nc1-c1ccccc1)C(=O)Nc1nc2ccccc2s1 [3h],0 mm,15 ± 0.25 mm,0 mm,0 mm,0.65,–,–,–,–,–,–,–,–
N#C/C(=C\c1cn(-c2ccccc2)nc1-c1ccccc1)C(=O)Nc1ccc(Br)cc1 [3c],0 mm,0 mm,0 mm,0 mm,–,–,–,–,–,–,–,–,–
N#CCC(=O)NN=Cc1cn(-c2ccccc2)nc1-c1ccccc1 [compound 8],0 mm,0 mm,0 mm,0 mm,–,–,–,–,–,–,–,–,–
"OC(Cn1cncn1)(Cn1cncn1)c1ccc(F)cc1F [Fluconazole, reference compound]",30.02 ± 0.05 mm,23.1 ± 0.06 mm,20.99 ± 0.05 mm,32 ± 0.2 mm,–,–,–,–,–,–,–,–,–
N#C/C(=C\c1cn(-c2ccccc2)nc1-c1ccccc1)C(=O)Nc1nccs1 [3g],0 mm,0 mm,0 mm,18 ± 0.77 mm,–,–,–,0.56,–,–,–,–,–
O=C(NN=Cc1cn(-c2ccccc2)nc1-c1ccccc1)c1cc2ccccc2oc1=O [10a],0 mm,0 mm,0 mm,0 mm,–,–,–,–,–,–,–,–,–
